How the values were obtained:
[1] = test system: mite eggs (Tetramuchus urticae); assay: Mite control test, mite eggs; assay type: in vivo; conditions: 40-ppm leaf dip, egg mortality (non-hatching eggs) 7 days after treatment
Procedure: (§1) Compounds of the invention were tested for the control mites and mite eggs by the following procedure. Pinto bean leaves were invested with two spotted-mites (Tetramuchus urticae). The mites were then allowed to lay eggs on the leaves. After 48 hours, the leaves were dipped into a water/acetone solution containing a small amount of a non-ionic surfactant and 40-ppm of the test compound. The treated leaves were then maintained at 85° F. One day after treatment, the mortality of adult mites was determined, and 7 days after treatment, the egg mortality (non-hatching eggs) was determined.

[2] = test system: two spotted-mites (Tetramuchus urticae); assay: Mite control test, adult mites; assay type: in vivo; conditions: 40-ppm leaf dip, adult mortality one day after treatment; 1440 min
Procedure: as §1

[3] = test system: Fusarium moniloforma; assay: Mycelia Inhibition; assay type: cell-based; conditions: 25° C., 24 hours
Procedure: (§2) The compounds of the present invention were evaluated for fungicidal effectiveness by means of a mycelial inhibition test. This test is designed to measure the fungitoxic acitvity of fungicidal chemicals in terms of their degree of inhibition of mycelium growth. Each compound to be tested was dissolved in acetone to 500 ppm concentration. Paper strips were innoculated with the particular mycelium growth by covering the paper with a potato dextrose broth culture of mycelial suspension. The innoculated papers were then placed on potato dextrose agar plates and sprayed by means of a micro sprayer with the fungicidal solution. The treated paper strips were incubated at 25° C. and data is taken after 24 hours. Fungicidal activities are measured by a zone of inhibited mycelial growth from the center of the paper strip. The effectiveness of the compounds tested for fungicidal activity is reported in Table VI in terms of the microgram/cm^2 for 99% control of the fungus.

[4] = test system: Aspergillus niger; assay: Mycelia Inhibition; assay type: cell-based; conditions: 25° C., 24 hours
Procedure: as §2

[5] = test system: Rhizoctonia solani; assay: Mycelia Inhibition; assay type: cell-based; conditions: 25° C., 24 hours
Procedure: as §2

[6] = test system: Erysiphe polygoni; assay: Powdery Mildew control on bean seedlings; assay type: in vivo; conditions: 250-ppm spray, about 10 days
Source text: The powdery mildew test was made using bean seedlings (var. Bountiful) with well-developed primary leaves. The pathogen was Erysiphe polygoni. The bean seedlings were sprayed with a 250-ppm solution of the test compound in an acetone-water mixture containing a nonionic emulsifer. The treated plants were inoculated one day after spray application of the test compound with the pathogen. […] The rate of infection on the leaves was made after about 10 days. The percent disease control provided by a given test compound was based on the disease reduction relative to untreated check plants.

[7] = test system: Pigweed (Amaranthus retroflexus); assay: Post-emergent herbicidal test; assay type: in vivo; conditions: post-emergence, 504 h, 33 mcg/cm^2, 3 weeks, scale 0 (no phytotoxicity) to 100 (complete kill), read-out: Herbicidal Effectiveness
Procedure: (§3) Post-emergent herbicidal tests with representative compounds of this invention were made using the following method.
(§4) An acetone solution of the test compound was prepared by mixing 750 mg of the compound, 220 mg of a nonionic surfactant and 25 ml of acetone. This solution was added to approximately 125 ml of water containing 156 mg of surfactant.
(§5) This test solution was uniformly sprayed on 2 similar pots of 24-day-old plants (approximately 15 to 25 plants per pot) at a dose of 33 mcg/cm^2. After the plants had dried, they were placed in a greenhouse and then watered intermittently at their bases, as needed. The plants were observed periodically for phytotoxic effects and physiological and morphological responses to the treatment. After 3 weeks, the herbicidal effectiveness of the compound was rated based on these observations. A 0-to-100 scale was used, 0 representing no phytotoxicity and 100 representing complete kill.

[8] = test system: Crabgrass (Digitaria sanguinalis); assay: Post-emergent herbicidal test; assay type: in vivo; conditions: post-emergence, 504 h, 33 mcg/cm^2, 3 weeks, scale 0 (no phytotoxicity) to 100 (complete kill), read-out: Herbicidal Effectiveness (C)
Procedure: as §3, §4, §5

[9] = test system: Mustard (Brassica arvensis); assay: Post-emergent herbicidal test; assay type: in vivo; conditions: post-emergence, 504 h, 33 mcg/cm^2, 3 weeks, scale 0 (no phytotoxicity) to 100 (complete kill), read-out: Herbicidal Effectiveness (L)
Procedure: as §3, §4, §5

[10] = test system: Wild Oats (Avena fatua); assay: Post-emergent herbicidal test; assay type: in vivo; conditions: post-emergence, 504 h, 33 mcg/cm^2, 3 weeks, scale 0 (no phytotoxicity) to 100 (complete kill), read-out: Herbicidal Effectiveness (O)
Procedure: as §3, §4, §5

[11] = test system: Watergrass (Echinochloa Crusgalli); assay: Post-emergent herbicidal test; assay type: in vivo; conditions: Echinochloa crus-galli, post-emergence, 504 h, 33 mcg/cm^2, 3 weeks, scale 0 (no phytotoxicity) to 100 (complete kill), read-out: Herbicidal Effectiveness (W)
Procedure: as §3, §4, §5

[12] = test system: Lambsquarter (Chenopodium album); assay: Post-emergent herbicidal test; assay type: in vivo; conditions: post-emergence, 504 h, 33 mcg/cm^2, 3 weeks, scale 0 (no phytotoxicity) to 100 (complete kill), read-out: Herbicidal Effectiveness (P)
Procedure: as §3, §4, §5

[13] = test system: Alternaria solani; assay: Tomato Early Blight control; assay type: in vivo; conditions: 250-ppm spray, tomato seedlings, inoculated 1 day later
Procedure: Compounds of the invention were tested for the control of the Tomato Early Blight organism, Alternaria solani conidia. […] The tomato plans were sprayed with a 250-ppm solution of the test compound in an acetone-and-water solution containing a small amount of a non-ionic emulsifier. […] Percent disease control was based on the percent disease development on untreated check plants.

[14] = test system: Phytophthora infestans; assay: whole plant or invertebrate; assay type: in vivo; conditions: in Solanum lycopersicum, 168 h, read-out: Tomato Late Blight, % Control
[15] = test system: Botrytis cinerea; assay: Mycelia Inhibition; assay type: cell-based; conditions: 25° C., 24 hours
Procedure: as §2

[16] = test system: Septoria apii; assay type: in vivo; conditions: sprayed celery plants; concentration not given

Row | SMILES | Mite Eggs Control, % [1] [%] | Mite Control, % [2] [%] | Mycelia Inhibition, for 99% control (F) [3] [micrograms/cm^2] | Mycelia Inhibition, for 99% control (A) [4] [micrograms/cm^2] | Mycelia Inhibition, for 99% control (R) [5] [micrograms/cm^2] | Powdery Mildew % Control [6] [%] | pest or weed control at 33 µg/cm2 [7] [%] | pest or weed control at 33 µg/cm2 [8] [%] | pest or weed control at 33 µg/cm2 [9] [%] | pest or weed control at 33 µg/cm2 [10] [%] | pest or weed control at 33 µg/cm2 [11] [%] | pest or weed control at 33 µg/cm2 [12] [%] | Tomato Early Blight, % Control [13] [%] | pest or weed control at 250 µg/mL [14] [%] | Mycelia Inhibition, for 99% control (B) [15] [micrograms/cm^2] | Celery Late Blight, % Control [16] [%]
1 | Clc1cc(Cl)cc(N=c2ssnc2Cl)c1 [Compound 3] | 85 | 90 | > 1.7 | > 1.7 | 0.98 | 76 | 100 | 55 | 100 | 35 | 85 | 100 | – | – | – | –
2 | Clc1ccc(N=c2ssnc2Cl)c(Cl)c1 [Compound 6] | 0 | 100 | – | – | – | – | 100 | 35 | 100 | 30 | 55 | 95 | 56 | – | – | –
3 | Cc1ccc(N=c2ssnc2Cl)c(C)c1 [Compound 13] | 30 | 0 | > 1.7 | 1.1 | > 1.7 | – | 35 | 0 | 50 | 0 | 0 | 35 | 44 | 63 | > 1.7 | –
4 | Clc1cccc(N=c2ssnc2Cl)c1 [Compound 15] | – | – | > 1.7 | > 1.7 | 0.98 | – | 85 | 10 | 98 | 30 | 45 | 80 | – | 68 | > 1.7 | –
5 | O=[N+]([O-])c1ccc(Oc2cccc(N=c3ssnc3Cl)c2)c(C(F)(F)F)c1 [Compound 17] | – | – | – | – | – | – | – | – | – | – | – | – | – | 62 | – | 56
6 | O=[N+]([O-])c1ccc(Oc2cccc(N=c3ssnc3Cl)c2)cc1 [Compound 18] | – | – | > 1.7 | > 1.7 | 0.45 | – | – | – | – | – | – | – | 44 | – | > 1.7 | 64
7 | O=[N+]([O-])c1ccc(Oc2ccc(N=c3ssnc3Cl)cc2)cc1 [Compound 19] | 78 | 0 | > 1.7 | > 1.7 | 0.88 | – | – | – | – | – | – | – | – | 51 | – | 62
8 | O=[N+]([O-])c1ccc(Oc2ccccc2N=c2ssnc2Cl)cc1 [Compound 20] | – | – | > 1.7 | > 1.7 | 1.3 | – | – | – | – | – | – | – | – | 80 | – | 62
9 | Fc1ccccc1N=c1ssnc1Cl [Compound 22] | 39 | 0 | 1.3 | 1.4 | 0.73 | – | 70 | 0 | 85 | 0 | 20 | 70 | 50 | – | – | 80
10 | N#Cc1ccc(N=c2ssnc2Cl)cc1 [Compound 23] | – | – | 1.4 | > 1.7 | 0.6 | – | – | – | – | – | – | – | 90 | 97 | 0.78 | 63
11 | Cc1ccc(Cl)cc1N=c1ssnc1Cl [Compound 28] | 85 | 85 | – | – | – | 90 | 100 | 20 | 100 | 45 | 65 | 95 | – | – | – | –
12 | N#Cc1ccccc1N=c1ssnc1Cl [Compound 29] | – | – | – | – | – | – | – | – | – | – | – | – | – | – | – | 44
13 | N#Cc1cc(C(F)(F)F)ccc1Oc1cccc(N=c2ssnc2Cl)c1 [Compound 30] | – | – | – | – | – | – | – | – | – | – | – | – | – | – | – | 80

Reference: patent US4119722A, “Method for control of fungi using 4-halo-5-aryl-1,2,3,-dithiazoles” (Chevron Research Company, priority 1977, dated 1978)
